No end group written: not given here.
Test: Serum stability
Type: in vitro ADME

- stability in serum: stable in serum
Sequence: FAKKFAKKFK [Peptide B, Phe-Ala-Lys-Lys-Phe-Ala-Lys-Lys-Phe-Lys]

From patent US10016480B2, “Peptide-based methods for treating pancreatic cancer” (The United States of America, as represented by the …, priority 2014, dated 2018)
